Laboratory results as given in ChEMBL document CHEMBL4261647, “Synthesis, DNA and protein interactions and human topoisomerase inhibition of novel Spiroacridine derivatives” (Bioorg Med Chem, 2018).

How the values were obtained:
Calf thymus DNA [1] = assay: Binding affinity to calf thymus DNA by UV-vis absorption spectral analysis; type: nucleic-acid assay; details: Bos taurus
Albumin [2] = target: T1, Albumin (Bos taurus, UniProt P02769); assay: Binding affinity to bovine serum albumin assessed as decrease in protein fluorescence intensity up to 10 uM by fluorescence spectroscopic analysis; type: ADME; parameters: scale not given: the % may be the effect or the level left; details: cattle, isolated protein
Calf thymus DNA [3] = assay: Binding affinity to calf thymus DNA assessed as hypochromic effect up to 10 uM by UV-vis absorption spectral analysis; type: nucleic-acid assay; details: Bos taurus
Albumin [4] = target: T1, Albumin; assay: Binding affinity to bovine serum albumin assessed as Stern-Volmer quenching constant by fluorescence spectroscopic analysis; type: ADME; details: cattle, isolated protein
[5] = target: DNA topoisomerase 2-alpha (Homo sapiens) (UniProt P11388); assay: Inhibition of recombinant human topoisomerase 2alpha assessed as decrease in relaxation of supercoiled pUC19 DNA at 100 uM after 30 mins by ethidium bromide staining based agarose gel electrophoresis relative to control
Calf thymus DNA [6] = assay: Binding affinity to calf thymus DNA assessed as hyperchromic effect up to 10 uM by UV-vis absorption spectral analysis; type: nucleic-acid assay; details: Bos taurus

T1 sequence (P02769 whole entry): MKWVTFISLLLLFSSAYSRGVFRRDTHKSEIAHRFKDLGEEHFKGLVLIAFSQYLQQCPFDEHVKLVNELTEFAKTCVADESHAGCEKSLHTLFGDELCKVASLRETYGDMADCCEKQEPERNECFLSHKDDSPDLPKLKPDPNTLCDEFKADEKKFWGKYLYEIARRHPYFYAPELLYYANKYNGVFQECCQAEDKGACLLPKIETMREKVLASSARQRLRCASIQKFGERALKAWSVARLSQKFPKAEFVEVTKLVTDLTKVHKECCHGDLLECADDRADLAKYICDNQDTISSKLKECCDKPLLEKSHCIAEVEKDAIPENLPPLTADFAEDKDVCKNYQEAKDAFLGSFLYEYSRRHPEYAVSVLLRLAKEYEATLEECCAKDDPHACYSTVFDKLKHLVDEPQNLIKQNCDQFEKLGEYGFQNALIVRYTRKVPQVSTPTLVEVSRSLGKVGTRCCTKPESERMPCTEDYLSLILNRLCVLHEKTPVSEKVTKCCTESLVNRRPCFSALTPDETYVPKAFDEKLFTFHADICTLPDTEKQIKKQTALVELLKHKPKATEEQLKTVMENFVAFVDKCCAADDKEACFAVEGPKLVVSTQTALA
DNA topoisomerase 2-alpha (Homo sapiens), sequence (P11388 whole entry): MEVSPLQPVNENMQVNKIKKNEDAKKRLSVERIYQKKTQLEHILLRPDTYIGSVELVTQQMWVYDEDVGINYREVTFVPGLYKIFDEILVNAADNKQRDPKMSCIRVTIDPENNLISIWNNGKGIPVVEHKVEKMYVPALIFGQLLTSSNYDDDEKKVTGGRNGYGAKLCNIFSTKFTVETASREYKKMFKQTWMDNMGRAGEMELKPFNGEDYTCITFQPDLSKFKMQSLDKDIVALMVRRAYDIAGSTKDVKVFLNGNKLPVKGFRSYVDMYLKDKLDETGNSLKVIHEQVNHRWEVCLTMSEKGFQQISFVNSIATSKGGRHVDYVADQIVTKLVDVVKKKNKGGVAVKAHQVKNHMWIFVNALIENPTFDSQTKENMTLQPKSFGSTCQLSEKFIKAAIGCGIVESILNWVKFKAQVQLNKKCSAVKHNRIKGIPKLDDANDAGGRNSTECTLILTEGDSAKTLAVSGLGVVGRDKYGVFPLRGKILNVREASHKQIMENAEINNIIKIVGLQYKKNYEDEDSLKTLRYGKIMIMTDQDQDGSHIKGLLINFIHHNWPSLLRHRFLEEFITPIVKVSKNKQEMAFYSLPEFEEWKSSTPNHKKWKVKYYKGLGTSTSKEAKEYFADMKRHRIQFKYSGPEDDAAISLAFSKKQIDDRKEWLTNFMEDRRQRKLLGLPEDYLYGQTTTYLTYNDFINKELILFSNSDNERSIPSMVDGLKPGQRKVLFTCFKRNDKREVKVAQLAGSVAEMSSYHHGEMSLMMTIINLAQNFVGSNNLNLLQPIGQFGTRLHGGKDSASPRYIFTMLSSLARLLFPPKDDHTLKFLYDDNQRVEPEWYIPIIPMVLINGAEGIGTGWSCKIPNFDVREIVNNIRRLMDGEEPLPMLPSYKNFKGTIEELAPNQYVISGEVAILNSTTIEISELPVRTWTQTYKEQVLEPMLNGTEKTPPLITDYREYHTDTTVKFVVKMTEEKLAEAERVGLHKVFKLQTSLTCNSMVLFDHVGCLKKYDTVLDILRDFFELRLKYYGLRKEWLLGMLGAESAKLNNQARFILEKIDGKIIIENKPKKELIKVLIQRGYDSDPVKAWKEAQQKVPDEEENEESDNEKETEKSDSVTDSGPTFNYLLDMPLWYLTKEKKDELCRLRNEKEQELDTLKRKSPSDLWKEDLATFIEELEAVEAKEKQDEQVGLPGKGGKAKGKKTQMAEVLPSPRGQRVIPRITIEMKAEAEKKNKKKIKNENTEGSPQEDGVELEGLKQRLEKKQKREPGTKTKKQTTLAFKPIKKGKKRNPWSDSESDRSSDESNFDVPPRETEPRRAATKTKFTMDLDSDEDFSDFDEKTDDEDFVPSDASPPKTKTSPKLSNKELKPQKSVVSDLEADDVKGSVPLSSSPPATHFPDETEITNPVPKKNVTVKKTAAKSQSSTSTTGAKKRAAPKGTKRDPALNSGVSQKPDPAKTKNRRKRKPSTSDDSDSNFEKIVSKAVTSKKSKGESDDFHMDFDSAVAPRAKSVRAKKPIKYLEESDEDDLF

Row | Kb (Calf thymus DNA [1]) | Activity (Albumin [2]) [%] | Activity (Calf thymus DNA [3]) [%] | KSV (Albumin [4]) [×10⁴ /M] | inhibition [5] [%] | Activity (Calf thymus DNA [6]) [%] | SMILES
1 | 6.7 ×10⁵ /M | 42.53 | 100 | 1.9 | 1.64 | – | COc1ccc(Br)cc1/C=N/N1C(=O)C(C#N)=CC12c1ccccc1Nc1ccccc12
2 | – | – | – | – | 9.78 | – | N#CC1=CC2(c3ccccc3Nc3ccccc32)N(/N=C/c2ccccc2)C1=O
3 | – | – | – | – | 88.1 | – | COc1ccc(/C=N/N2C(=O)C(C#N)=CC23c2ccccc2Nc2ccccc23)cc1
4 | 8.2 ×10⁵ /M | 48.01 | – | 2 | 61.7 | 65.3 | N#CC1=CC2(c3ccccc3Nc3ccccc32)N(/N=C/c2ccc(Cl)cc2Cl)C1=O
5 | 1.5 ×10⁵ /M | 55.11 | – | 2.3 | 70.7 | 45.8 | N#CC1=CC2(c3ccccc3Nc3ccccc32)N(/N=C/c2ccc(F)cc2)C1=O
6 | 1.6 ×10⁵ /M | 45.77 | 30 | 2.1 | 15.9 | – | N#CC1=CC2(c3ccccc3Nc3ccccc32)N(/N=C/c2c(Cl)cccc2Cl)C1=O
7 | 2.6 ×10⁵ /M | 58.57 | 14.4 | 2.3 | 20.6 | – | CCOc1cc(/C=N/N2C(=O)C(C#N)=CC23c2ccccc2Nc2ccccc23)ccc1O
8 | 4.8 ×10⁶ /M | 71.74 | 13.5 | 3.1 | 43.7 | – | N#CC1=CC2(c3ccccc3Nc3ccccc32)N(/N=C/c2ccc([N+](=O)[O-])cc2)C1=O
9 | 7.6 ×10⁵ /M | 60.3 | 44.3 | 3.4 | 84.3 | – | N#CC1=CC2(c3ccccc3Nc3ccccc32)N(/N=C/c2ccc(Cl)cc2)C1=O
10 | 1.1 ×10⁸ /M | 54.95 | 7.14 | 2.7 | 1.64 | – | CN(C)c1ccc(/C=N/N2C(=O)C(C#N)=CC23c2ccccc2Nc2ccccc23)cc1
11 | 3.7 ×10⁵ /M | 51.46 | 8.06 | 2.3 | 1.64 | – | N#CC1=CC2(c3ccccc3Nc3ccccc32)N(/N=C/c2ccccc2[N+](=O)[O-])C1=O
